Source: PubChem BioAssay (NCI)
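GI50 marks 50% less growth. TGI: total growth inhibition.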

How the values were obtained:
Experiment in all cases: inhibition of tumour cell growth, NCI panel, 384-well format
TK-10 renal = test system: TK-10 renal
RXF 393 renal = test system: RXF 393 renal
M14 melanoma = test system: M14 melanoma
UACC-62 melanoma = test system: UACC-62 melanoma
EKVX NSCLC = test system: EKVX NSCLC
OVCAR-5 ovarian = test system: OVCAR-5 ovarian
SW-620 colon = test system: SW-620 colon
NCI-H460 NSCLC = test system: NCI-H460 NSCLC
SN12C renal = test system: SN12C renal
OVCAR-8 ovarian = test system: OVCAR-8 ovarian
CAKI-1 renal = test system: CAKI-1 renal
SF-268 CNS = test system: SF-268 CNS
U251 glioblastoma = test system: U251 glioblastoma
MOLT-4 leukemia = test system: MOLT-4 leukemia
NCI-H226 lung = test system: NCI-H226 lung
DU-145 prostate = test system: DU-145 prostate
RPMI-8226 leukemia = test system: RPMI-8226 leukemia
MALME-3M melanoma = test system: MALME-3M melanoma
NCI-H23 lung = test system: NCI-H23 lung
MDA-MB-435 melanoma = test system: MDA-MB-435 melanoma
SK-OV-3 ovarian = test system: SK-OV-3 ovarian
MDA-MB-231 breast = test system: MDA-MB-231 breast
NCI/ADR-RES ovarian = test system: NCI/ADR-RES ovarian
SK-MEL-28 melanoma = test system: SK-MEL-28 melanoma
NCI-H322M lung = test system: NCI-H322M lung
UO-31 renal = test system: UO-31 renal
MDA-MB-468 breast = test system: MDA-MB-468 breast
BT-549 breast = test system: BT-549 breast
SNB-19 CNS = test system: SNB-19 CNS
COLO 205 colon = test system: COLO 205 colon
HCC-2998 colon = test system: HCC-2998 colon
HOP-62 NSCLC = test system: HOP-62 NSCLC
SNB-75 CNS = test system: SNB-75 CNS
UACC-257 melanoma = test system: UACC-257 melanoma
HCT-15 colon = test system: HCT-15 colon
OVCAR-4 ovarian = test system: OVCAR-4 ovarian
HOP-92 NSCLC = test system: HOP-92 NSCLC
786-0 renal = test system: 786-0 renal
SR leukemia = test system: SR leukemia
ACHN renal = test system: ACHN renal
KM12 colon = test system: KM12 colon
A498 renal = test system: A498 renal
HL-60(TB) leukemia = test system: HL-60(TB) leukemia
LOX IMVI melanoma = test system: LOX IMVI melanoma
SK-MEL-5 melanoma = test system: SK-MEL-5 melanoma
MCF7 breast = test system: MCF7 breast
T-47D breast = test system: T-47D breast
NCI-H522 lung = test system: NCI-H522 lung
A549 NSCLC = test system: A549 NSCLC
OVCAR-3 ovarian = test system: OVCAR-3 ovarian
IGROV1 ovarian = test system: IGROV1 ovarian
PC-3 prostate = test system: PC-3 prostate
HT29 colon = test system: HT29 colon
SF-295 CNS = test system: SF-295 CNS
SF-539 CNS = test system: SF-539 CNS
HS 578T breast = test system: HS 578T breast
HCT-116 colon = test system: HCT-116 colon

## C=C1C[C@@H]2[C@H](CC[C@]3(C)C(=O)CC[C@@H]23)[C@@]2(C)C=CC(=O)C=C12
TK-10 renal
  GI50: > 100 µM
  TGI: > 100 µM
RXF 393 renal
  GI50: 5.67 µM
  TGI: 17.4 µM
M14 melanoma
  GI50: 29.3 µM
  TGI: > 100 µM
UACC-62 melanoma
  GI50: 21.9 µM
  TGI: > 100 µM
EKVX NSCLC
  GI50: 28.4 µM
  TGI: 75.7 µM
OVCAR-5 ovarian
  GI50: > 100 µM
  TGI: > 100 µM
SW-620 colon
  GI50: 33.9 µM
  TGI: > 100 µM
NCI-H460 NSCLC
  GI50: 21.1 µM
  TGI: 40.6 µM
SN12C renal
  GI50: 32.4 µM
  TGI: 98.2 µM
OVCAR-8 ovarian
  GI50: 20.3 µM
  TGI: 47.2 µM
CAKI-1 renal
  GI50: 27 µM
  TGI: 70.7 µM
SF-268 CNS
  GI50: 27.4 µM
  TGI: 74.9 µM
U251 glioblastoma
  GI50: 21.4 µM
  TGI: 44.4 µM
MOLT-4 leukemia
  GI50: 13.7 µM
  TGI: 27 µM
NCI-H226 lung
  GI50: 20.5 µM
  TGI: 39.2 µM
DU-145 prostate
  GI50: 35.2 µM
  TGI: > 100 µM
RPMI-8226 leukemia
  GI50: 17.8 µM
  TGI: 32.2 µM
MALME-3M melanoma
  GI50: 12.2 µM
  TGI: 25.9 µM
NCI-H23 lung
  GI50: 17.9 µM
  TGI: 36.2 µM
MDA-MB-435 melanoma
  GI50: 82.9 µM
  TGI: > 100 µM
SK-OV-3 ovarian
  GI50: 82.2 µM
  TGI: > 100 µM
MDA-MB-231 breast
  GI50: 28.8 µM
  TGI: 85.1 µM
NCI/ADR-RES ovarian
  GI50: 17.9 µM
  TGI: 35.3 µM
SK-MEL-28 melanoma
  GI50: > 100 µM
  TGI: > 100 µM
NCI-H322M lung
  GI50: 25.1 µM
  TGI: 74.6 µM
UO-31 renal
  GI50: 21.1 µM
  TGI: 39.5 µM
MDA-MB-468 breast
  GI50: 6.15 µM
  TGI: 25.8 µM
BT-549 breast
  GI50: 14.9 µM
  TGI: 31.1 µM
SNB-19 CNS
  GI50: 46.5 µM
  TGI: > 100 µM
COLO 205 colon
  GI50: 20.7 µM
  TGI: 37.4 µM
HCC-2998 colon
  GI50: 15.8 µM
  TGI: 30 µM
HOP-62 NSCLC
  GI50: 23.1 µM
  TGI: 56.2 µM
SNB-75 CNS
  GI50: 25.9 µM
  TGI: 74 µM
UACC-257 melanoma
  GI50: 17.3 µM
  TGI: 53.1 µM
HCT-15 colon
  GI50: 19 µM
  TGI: > 100 µM
OVCAR-4 ovarian
  GI50: 20.9 µM
  TGI: 40.2 µM
HOP-92 NSCLC
  GI50: > 100 µM
  TGI: > 100 µM
786-0 renal
  GI50: 19.8 µM
  TGI: 45.8 µM
SR leukemia
  GI50: 18 µM
  TGI: 32.1 µM
ACHN renal
  GI50: 22.3 µM
  TGI: 42.6 µM
KM12 colon
  GI50: 28 µM
  TGI: 94.9 µM
A498 renal
  GI50: 23.3 µM
  TGI: 47.8 µM
HL-60(TB) leukemia
  GI50: 12.8 µM
  TGI: 25.6 µM
LOX IMVI melanoma
  GI50: 12.5 µM
  TGI: 27.1 µM
SK-MEL-5 melanoma
  GI50: 12.9 µM
  TGI: 29.1 µM
MCF7 breast
  GI50: 18.6 µM
  TGI: 82.4 µM
T-47D breast
  GI50: 27.6 µM
  TGI: 98.6 µM
NCI-H522 lung
  GI50: 12.2 µM
  TGI: 24.8 µM
A549 NSCLC
  GI50: 30.1 µM
  TGI: > 100 µM
OVCAR-3 ovarian
  GI50: 14.8 µM
  TGI: 35.9 µM
IGROV1 ovarian
  GI50: 32.6 µM
  TGI: > 100 µM
PC-3 prostate
  GI50: 30.3 µM
  TGI: > 100 µM
HT29 colon
  GI50: 23 µM
  TGI: 99.1 µM
SF-295 CNS
  GI50: 57.1 µM
  TGI: > 100 µM
SF-539 CNS
  GI50: 19.6 µM
  TGI: 38.9 µM
HS 578T breast
  GI50: 12.3 µM
  TGI: 27.2 µM
HCT-116 colon
  GI50: 27.5 µM
  TGI: > 100 µM
